How the values were obtained:
[1] = tested on: Abutilon theophrasti (ABUTH); experiment: Herbicidal greenhouse screening, post-emergence; assay type: in vivo; conditions: visual, 3 weeks after spraying
Procedure: (§1) Seeds of mono‐ and dicotyledonous weed plants were sown in plastic pots of 7 cm diameter filled with a clayey silt soil substrate. The plants were maintained for the preparatory phase of germination and initial growth in the greenhouse under optimum growth conditions. Phosphonothrixin (1) was prepared for application as an emulsion concentrate and diluted together with 0.2% agrotin (a polyfunctional non‐ionic additive) in water corresponding to a spray volume of approximately 600 L ha^−1. At a growth stage of 2 to 4 true leaves the test plants were sprayed and then placed in the greenhouse for 3 weeks under optimum growth conditions. Subsequently, the effect of phosphonothrixin (1) was assessed visually relative to the untreated controls resulting in herbicidal effects (%) ranging from 0% (no effect = untreated control) to 100% (complete control = died‐off ).

[2] = tested on: Alopecurus myosuroides (ALOMY); experiment: Herbicidal greenhouse screening, post-emergence; assay type: in vivo; conditions: visual, 3 weeks after spraying
Procedure: as §1

[3] = tested on: Amaranthus retroflexus (AMARE); experiment: Herbicidal greenhouse screening, post-emergence; assay type: in vivo; conditions: visual, 3 weeks after spraying
Procedure: as §1

[4] = tested on: Avena fatua (AVEFA); experiment: Herbicidal greenhouse screening, post-emergence; assay type: in vivo; conditions: visual, 3 weeks after spraying
Procedure: as §1

[5] = tested on: Brassica napus (winter rape, BRSNW); experiment: Herbicidal greenhouse screening, post-emergence; assay type: in vivo; conditions: visual, 3 weeks after spraying
Procedure: as §1

[6] = tested on: Cyperus esculentus (CYPES); experiment: Herbicidal greenhouse screening, post-emergence; assay type: in vivo; conditions: visual, 3 weeks after spraying
Procedure: as §1

[7] = tested on: Echinochloa crus‐galli (ECHCG); experiment: Herbicidal greenhouse screening, post-emergence; assay type: in vivo; conditions: visual, 3 weeks after spraying
Procedure: as §1

[8] = tested on: Lolium multiflorum (LOLMU); experiment: Herbicidal greenhouse screening, post-emergence; assay type: in vivo; conditions: visual, 3 weeks after spraying
Procedure: as §1

[9] = tested on: Matricaria inodora (MATIN); experiment: Herbicidal greenhouse screening, post-emergence; assay type: in vivo; conditions: visual, 3 weeks after spraying
Procedure: as §1

[10] = tested on: Oryza sativa (ORYSA); experiment: Herbicidal greenhouse screening, post-emergence; assay type: in vivo; conditions: visual, 3 weeks after spraying
Procedure: as §1

[11] = tested on: Pharbitis purpurea (PHBPU); experiment: Herbicidal greenhouse screening, post-emergence; assay type: in vivo; conditions: visual, 3 weeks after spraying
Procedure: as §1

[12] = tested on: Polygonum convolvulus (POLCO); experiment: Herbicidal greenhouse screening, post-emergence; assay type: in vivo; conditions: visual, 3 weeks after spraying
Procedure: as §1

[13] = tested on: Setaria viridis (SETVI); experiment: Herbicidal greenhouse screening, post-emergence; assay type: in vivo; conditions: visual, 3 weeks after spraying
Procedure: as §1

[14] = tested on: Stellaria media (STEME); experiment: Herbicidal greenhouse screening, post-emergence; assay type: in vivo; conditions: visual, 3 weeks after spraying
Procedure: as §1

[15] = tested on: Triticum aestivum (spring wheat, TRZAS); experiment: Herbicidal greenhouse screening, post-emergence; assay type: in vivo; conditions: visual, 3 weeks after spraying
Procedure: as §1

[16] = tested on: Veronica persica (VERPE); experiment: Herbicidal greenhouse screening, post-emergence; assay type: in vivo; conditions: visual, 3 weeks after spraying
Procedure: as §1

[17] = tested on: Viola tricolor (VIOTR); experiment: Herbicidal greenhouse screening, post-emergence; assay type: in vivo; conditions: visual, 3 weeks after spraying
Procedure: as §1

[18] = tested on: Zea mays (ZEAMX); experiment: Herbicidal greenhouse screening, post-emergence; assay type: in vivo; conditions: visual, 3 weeks after spraying
Procedure: as §1

[19] = biological target: T1, AtDHBPS (Arabidopsis thaliana, UniProt P47924); experiment: DHBPS activity assay; assay type: biochemical
T1 construct: made in house; host or cells: Escherichia coli BL21(DE3)
T1 sequence (P47924 with tags, fused parts or gaps): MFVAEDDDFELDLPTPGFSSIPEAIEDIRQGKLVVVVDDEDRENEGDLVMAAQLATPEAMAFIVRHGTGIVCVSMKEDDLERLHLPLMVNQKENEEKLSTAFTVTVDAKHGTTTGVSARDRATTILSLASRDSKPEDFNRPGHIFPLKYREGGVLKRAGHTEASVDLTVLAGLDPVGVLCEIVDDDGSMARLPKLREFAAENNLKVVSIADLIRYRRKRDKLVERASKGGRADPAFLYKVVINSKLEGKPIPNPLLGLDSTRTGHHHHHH
Procedure: (§2) DHBPS activity assays were out carried in 96‐well microtiter plates using a modification of the procedure previously described.[18] The reaction mixture contained 100 mM MES (2‐morpholinoethanesulfonic acid) buffer pH 6.5, 20 mM MgCl2, 20 mM D‐ribose‐5‐phosphate (Sigma‐Aldrich R7750), 0.02% Tween‐20, 0.2 mg BSA, 0.5 μg of spinach phosphoriboisomerase (Sigma‐Aldrich P9752) and DHBPS enzyme in a final volume of 110 μL. Assays were initiated by adding enzyme and terminated after 120 min incubation at rt by the addition of 90 μL of a solution of 3.5% α‐naphthol and 0.2% creatine in 2 N NaOH. After an additional 45 min incubation at rt the absorbance was determined at 540 nm. The pI50‐value for inhibition by phosphonothrixin (1) was determined with the XLFit Excel add‐in version 4.3.1 curve fitting program of ID Business Solutions Limited. […] Reaction velocities were fitted to the Michaelis–Menten equation with the XLFit curve fitting program.

[20] = biological target: ZtDHBPS (Zymoseptoria tritici, UniProt F9X7Z9); experiment: DHBPS activity assay; assay type: biochemical
Sequence of ZtDHBPS (F9X7Z9 1-226): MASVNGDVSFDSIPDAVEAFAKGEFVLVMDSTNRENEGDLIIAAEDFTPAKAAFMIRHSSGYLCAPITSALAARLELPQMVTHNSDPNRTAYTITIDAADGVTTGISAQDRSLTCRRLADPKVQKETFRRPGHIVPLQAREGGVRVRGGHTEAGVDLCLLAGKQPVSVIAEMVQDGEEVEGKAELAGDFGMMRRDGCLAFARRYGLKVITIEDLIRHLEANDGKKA
Procedure: as §2

[21] = tested on: mono‐ and dicotyledonous weed plants; experiment: Greenhouse test, post-emergence, phenotype of affected plants; assay type: in vivo
Procedure: as §1

Structure (SMILES): CC(=O)C(O)(CO)CP(=O)(O)O (centres unmarked) [phosphonothrixin]
- herbicidal effect rating, post-emergence ([1]; 80 g/ha): 2 (‘2’ = 40–59% inhibition)
- herbicidal effect rating, post-emergence ([1]; 320 g/ha): 3 (‘3’ = 60–79% inhibition)
- herbicidal effect rating, post-emergence ([1]; 1280 g/ha): 4 (‘4’ = 80–90% inhibition)
- herbicidal effect rating, post-emergence ([1]; 5120 g/ha): 4 (‘4’ = 80–90% inhibition)
- herbicidal effect rating, post-emergence ([2]; 320 g/ha): 1 (‘1’ = 20–39% inhibition)
- herbicidal effect rating, post-emergence ([2]; 1280 g/ha): 3 (‘3’ = 60–79% inhibition)
- herbicidal effect rating, post-emergence ([2]; 5120 g/ha): 4 (‘4’ = 80–90% inhibition)
- herbicidal effect rating, post-emergence ([3]; 80 g/ha): 2 (‘2’ = 40–59% inhibition)
- herbicidal effect rating, post-emergence ([3]; 320 g/ha): 3 (‘3’ = 60–79% inhibition)
- herbicidal effect rating, post-emergence ([3]; 1280 g/ha): 4 (‘4’ = 80–90% inhibition)
- herbicidal effect rating, post-emergence ([3]; 5120 g/ha): 4 (‘4’ = 80–90% inhibition)
- herbicidal effect rating, post-emergence ([4]; 80 g/ha): 2 (‘2’ = 40–59% inhibition)
- herbicidal effect rating, post-emergence ([4]; 320 g/ha): 3 (‘3’ = 60–79% inhibition)
- herbicidal effect rating, post-emergence ([4]; 1280 g/ha): 4 (‘4’ = 80–90% inhibition)
- herbicidal effect rating, post-emergence ([4]; 5120 g/ha): 4 (‘4’ = 80–90% inhibition)
- herbicidal effect rating, post-emergence ([5]; 80 g/ha): 2 (‘2’ = 40–59% inhibition)
- herbicidal effect rating, post-emergence ([5]; 320 g/ha): 3 (‘3’ = 60–79% inhibition)
- herbicidal effect rating, post-emergence ([5]; 1280 g/ha): 4 (‘4’ = 80–90% inhibition)
- herbicidal effect rating, post-emergence ([5]; 5120 g/ha): 4 (‘4’ = 80–90% inhibition)
- herbicidal effect rating, post-emergence ([6]; 320 g/ha): 2 (‘2’ = 40–59% inhibition)
- herbicidal effect rating, post-emergence ([6]; 1280 g/ha): 3 (‘3’ = 60–79% inhibition)
- herbicidal effect rating, post-emergence ([6]; 5120 g/ha): 4 (‘4’ = 80–90% inhibition)
- herbicidal effect rating, post-emergence ([7]; 80 g/ha): 1 (‘1’ = 20–39% inhibition)
- herbicidal effect rating, post-emergence ([7]; 320 g/ha): 2 (‘2’ = 40–59% inhibition)
- herbicidal effect rating, post-emergence ([7]; 1280 g/ha): 4 (‘4’ = 80–90% inhibition)
- herbicidal effect rating, post-emergence ([7]; 5120 g/ha): 4 (‘4’ = 80–90% inhibition)
- herbicidal effect rating, post-emergence ([8]; 80 g/ha): 1 (‘1’ = 20–39% inhibition)
- herbicidal effect rating, post-emergence ([8]; 320 g/ha): 3 (‘3’ = 60–79% inhibition)
- herbicidal effect rating, post-emergence ([8]; 1280 g/ha): 4 (‘4’ = 80–90% inhibition)
- herbicidal effect rating, post-emergence ([8]; 5120 g/ha): 4 (‘4’ = 80–90% inhibition)
- herbicidal effect rating, post-emergence ([9]; 80 g/ha): 2 (‘2’ = 40–59% inhibition)
- herbicidal effect rating, post-emergence ([9]; 320 g/ha): 3 (‘3’ = 60–79% inhibition)
- herbicidal effect rating, post-emergence ([9]; 1280 g/ha): 4 (‘4’ = 80–90% inhibition)
- herbicidal effect rating, post-emergence ([9]; 5120 g/ha): 4 (‘4’ = 80–90% inhibition)
- herbicidal effect rating, post-emergence ([10]; 1280 g/ha): 1 (‘1’ = 20–39% inhibition)
- herbicidal effect rating, post-emergence ([10]; 5120 g/ha): 2 (‘2’ = 40–59% inhibition)
- herbicidal effect rating, post-emergence ([11]; 80 g/ha): 4 (‘4’ = 80–90% inhibition)
- herbicidal effect rating, post-emergence ([11]; 320 g/ha): 4 (‘4’ = 80–90% inhibition)
- herbicidal effect rating, post-emergence ([11]; 1280 g/ha): 4 (‘4’ = 80–90% inhibition)
- herbicidal effect rating, post-emergence ([11]; 5120 g/ha): 4 (‘4’ = 80–90% inhibition)
- herbicidal effect rating, post-emergence ([12]; 80 g/ha): 1 (‘1’ = 20–39% inhibition)
- herbicidal effect rating, post-emergence ([12]; 320 g/ha): 1 (‘1’ = 20–39% inhibition)
- herbicidal effect rating, post-emergence ([12]; 1280 g/ha): 1 (‘1’ = 20–39% inhibition)
- herbicidal effect rating, post-emergence ([12]; 5120 g/ha): 2 (‘2’ = 40–59% inhibition)
- herbicidal effect rating, post-emergence ([13]; 80 g/ha): 4 (‘4’ = 80–90% inhibition)
- herbicidal effect rating, post-emergence ([13]; 320 g/ha): 4 (‘4’ = 80–90% inhibition)
- herbicidal effect rating, post-emergence ([13]; 1280 g/ha): 4 (‘4’ = 80–90% inhibition)
- herbicidal effect rating, post-emergence ([13]; 5120 g/ha): 4 (‘4’ = 80–90% inhibition)
- herbicidal effect rating, post-emergence ([14]; 80 g/ha): 3 (‘3’ = 60–79% inhibition)
- herbicidal effect rating, post-emergence ([14]; 320 g/ha): 3 (‘3’ = 60–79% inhibition)
- herbicidal effect rating, post-emergence ([14]; 1280 g/ha): 3 (‘3’ = 60–79% inhibition)
- herbicidal effect rating, post-emergence ([14]; 5120 g/ha): 4 (‘4’ = 80–90% inhibition)
- herbicidal effect rating, post-emergence ([15]; 320 g/ha): 1 (‘1’ = 20–39% inhibition)
- herbicidal effect rating, post-emergence ([15]; 1280 g/ha): 4 (‘4’ = 80–90% inhibition)
- herbicidal effect rating, post-emergence ([15]; 5120 g/ha): 4 (‘4’ = 80–90% inhibition)
- herbicidal effect rating, post-emergence ([16]; 80 g/ha): 3 (‘3’ = 60–79% inhibition)
- herbicidal effect rating, post-emergence ([16]; 320 g/ha): 3 (‘3’ = 60–79% inhibition)
- herbicidal effect rating, post-emergence ([16]; 1280 g/ha): 4 (‘4’ = 80–90% inhibition)
- herbicidal effect rating, post-emergence ([16]; 5120 g/ha): 4 (‘4’ = 80–90% inhibition)
- herbicidal effect rating, post-emergence ([17]; 80 g/ha): 1 (‘1’ = 20–39% inhibition)
- herbicidal effect rating, post-emergence ([17]; 320 g/ha): 3 (‘3’ = 60–79% inhibition)
- herbicidal effect rating, post-emergence ([17]; 1280 g/ha): 4 (‘4’ = 80–90% inhibition)
- herbicidal effect rating, post-emergence ([17]; 5120 g/ha): 4 (‘4’ = 80–90% inhibition)
- herbicidal effect rating, post-emergence ([18]; 320 g/ha): 2 (‘2’ = 40–59% inhibition)
- herbicidal effect rating, post-emergence ([18]; 1280 g/ha): 3 (‘3’ = 60–79% inhibition)
- herbicidal effect rating, post-emergence ([18]; 5120 g/ha): 4 (‘4’ = 80–90% inhibition)
- IC50 [19]: 58 ± 11 µM
- Ki [19]: 16.6 ± 5 µM
- type of inhibition of AtDHBPS ([19]; with respect to the substrate): competitive inhibitor
- IC50 [20]: 19 µM
- phenotype of affected plants [21]: bleaching phenotype
